From US12539292B2, “BRM targeting compounds and associated methods of use” (Arvinas Operations, Inc., priority 2018, dated 2026)

Molecular target: T1, BRM (Homo sapiens, UniProt P51531)
T1 construct: In-Cell Western Screen of BRM Degradation in SW1573 Cells; endogenous in cells; host or cells: SW1573
Test: In-cell Western screen of BRM degradation in SW1573 cells (Dmax and DC50)
Assay type: cell-based
Settings: BRM degradation, SW1573 cells; for DC50: read-out: DC50; for Dmax: when tested at the top concentration of between 0.3 and 10 μM, read-out: Dmax (%) (% degraded)
Outline: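 Overnight compound treatment (18-20 h, final DMSO 0.1%) of SW1573 cells in DMEM with 10% FBS precedes fixation and in-cell Western staining with 800/680 nm dye-labelled secondaries. Plate images give DC50 and maximal degradation.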

T1 sequence (P51531 whole entry): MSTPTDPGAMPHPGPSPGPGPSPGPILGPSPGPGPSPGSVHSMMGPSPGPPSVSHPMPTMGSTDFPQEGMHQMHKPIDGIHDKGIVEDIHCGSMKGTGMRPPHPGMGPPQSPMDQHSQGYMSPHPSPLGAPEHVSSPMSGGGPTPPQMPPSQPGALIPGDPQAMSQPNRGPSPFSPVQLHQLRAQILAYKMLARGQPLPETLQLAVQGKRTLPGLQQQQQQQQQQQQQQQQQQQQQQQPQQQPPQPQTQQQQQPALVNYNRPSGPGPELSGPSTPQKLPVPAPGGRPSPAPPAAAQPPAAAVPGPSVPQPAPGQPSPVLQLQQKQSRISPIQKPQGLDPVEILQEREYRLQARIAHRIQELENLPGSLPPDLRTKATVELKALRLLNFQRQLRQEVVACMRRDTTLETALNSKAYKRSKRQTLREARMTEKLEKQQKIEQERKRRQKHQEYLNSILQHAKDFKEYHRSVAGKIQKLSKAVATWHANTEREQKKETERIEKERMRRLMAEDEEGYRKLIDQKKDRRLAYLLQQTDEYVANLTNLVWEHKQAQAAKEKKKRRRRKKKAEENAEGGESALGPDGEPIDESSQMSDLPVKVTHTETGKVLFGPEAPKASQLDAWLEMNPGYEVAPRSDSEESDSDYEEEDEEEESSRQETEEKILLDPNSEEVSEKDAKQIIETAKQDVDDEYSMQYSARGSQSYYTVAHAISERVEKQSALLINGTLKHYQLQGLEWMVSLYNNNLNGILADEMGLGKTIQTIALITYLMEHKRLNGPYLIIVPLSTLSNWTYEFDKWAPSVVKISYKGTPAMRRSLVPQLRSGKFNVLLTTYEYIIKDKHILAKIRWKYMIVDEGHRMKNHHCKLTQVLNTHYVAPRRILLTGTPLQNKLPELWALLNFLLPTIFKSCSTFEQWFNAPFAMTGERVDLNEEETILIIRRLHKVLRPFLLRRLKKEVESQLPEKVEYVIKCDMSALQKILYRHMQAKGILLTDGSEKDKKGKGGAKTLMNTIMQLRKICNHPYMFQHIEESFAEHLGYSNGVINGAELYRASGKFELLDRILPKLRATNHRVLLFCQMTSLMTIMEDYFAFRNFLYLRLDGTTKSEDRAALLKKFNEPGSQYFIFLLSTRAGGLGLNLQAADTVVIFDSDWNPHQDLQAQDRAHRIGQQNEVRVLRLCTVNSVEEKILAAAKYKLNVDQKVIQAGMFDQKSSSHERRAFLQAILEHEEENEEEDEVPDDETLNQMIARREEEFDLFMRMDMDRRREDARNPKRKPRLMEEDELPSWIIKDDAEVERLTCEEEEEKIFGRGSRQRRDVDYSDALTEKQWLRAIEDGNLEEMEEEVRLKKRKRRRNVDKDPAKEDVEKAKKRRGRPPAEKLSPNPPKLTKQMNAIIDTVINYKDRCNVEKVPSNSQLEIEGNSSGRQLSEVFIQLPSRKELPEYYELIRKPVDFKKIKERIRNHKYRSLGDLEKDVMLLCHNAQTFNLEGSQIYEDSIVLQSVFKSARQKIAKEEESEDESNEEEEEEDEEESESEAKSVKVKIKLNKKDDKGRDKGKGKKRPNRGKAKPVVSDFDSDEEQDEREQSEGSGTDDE

SMILES | DC50 | Dmax
Cc1ncsc1-c1ccc(CNC(=O)[C@@H]2C[C@@H](O)CN2C(=O)[C@H](c2cc(OCCOCCOCCCCN3CCOC4(CCN(c5cc(-c6ccccc6O)nnc5N)CC4)C3)no2)C(C)C)cc1 [compound 36, (2S,4R)-1-[(2S)-2-(3-[2-[2-(4-[9-[3-amino-6-(2-hydroxyphenyl)pyridazin-4-yl]-1-oxa-4,9-diazaspiro[5.5]undecan-4-yl]butoxy)ethoxy]ethoxy]-1,2-oxazol-5-yl)-3-methylbutanoyl]-4-hydroxy-N-[[4-(4-methyl-1,3-thiazol-5-yl)phenyl]methyl]pyrrolidine-2-carboxamide] | > 30 nM | 50 to 75%
Cc1ncsc1-c1ccc(CNC(=O)[C@@H]2C[C@@H](O)CN2C(=O)[C@@H](c2cc(OCCOCCOCCCCN3CCOC4(CCN(c5cc(-c6ccccc6O)nnc5N)CC4)C3)no2)C(C)C)cc1 [compound 37, (2S,4R)-1-((R)-2-(3-(2-(2-(4-(9-(3-amino-6-(2-hydroxyphenyl)pyridazin-4-yl)-1-oxa-4,9-diazaspiro[5.5]undecan-4-yl)butoxy)ethoxy)ethoxy)isoxazol-5-yl)-3-methylbutanoyl)-4-hydroxy-N-(4-(4-methylthiazol-5-yl)benzyl)pyrrolidine-2-carboxamide] | 2.5 to 10 nM | > 75%
Cc1ncsc1-c1ccc(CNC(=O)[C@@H]2C[C@@H](O)CN2C(=O)[C@@H](NC(=O)COCCOCCN2CCN(CCCc3cc(N4C5CCC4CN(c4cc(-c6ccccc6O)nnc4N)C5)ccn3)CC2)C(C)(C)C)cc1 [compound 40, (2S,4R)-1-[(2S)-2-[2-[2-(2-[4-[3-(4-[3-[3-amino-6-(2-hydroxyphenyl)pyridazin-4-yl]-3,8-diazabicyclo[3.2.1]octan-8-yl]pyridin-2-yl)propyl]piperazin-1-yl]ethoxy)ethoxy]acetamido]-3,3-dimethylbutanoyl]-4-hydroxy-N-[[4-(4-methyl-1,3-thiazol-5-yl)phenyl]methyl]pyrrolidine-2-carboxamide] | > 30 nM | < 50%
Cc1ncsc1-c1ccc(CNC(=O)[C@@H]2C[C@@H](O)CN2C(=O)[C@H](c2cc(OCCN3CCN(CCOc4cc(N5C6CCC5CN(c5cc(-c7ccccc7O)nnc5N)C6)ccn4)CC3)no2)C(C)C)cc1 [compound 41, (2S,4R)-1-[(2S)-2-[3-[2-(4-[2-[(4-[3-[3-amino-6-(2-hydroxyphenyl)pyridazin-4-yl]-3,8-diazabicyclo[3.2.1]octan-8-yl]pyridin-2-yl)oxy]ethyl]piperazin-1-yl)ethoxy]-1,2-oxazol-5-yl]-3-methylbutanoyl]-4-hydroxy-N-[[4-(4-methyl-1,3-thiazol-5-yl)phenyl]methyl]pyrrolidine-2-carboxamide] | 10 to 30 nM | > 75%
Cc1ncsc1-c1ccc(CNC(=O)[C@@H]2C[C@@H](O)CN2C(=O)[C@@H](c2cc(OCCN3CCN(CCOc4cc(N5C6CCC5CN(c5cc(-c7ccccc7O)nnc5N)C6)ccn4)CC3)no2)C(C)C)cc1 [compound 42, (2S,4R)-1-[(2R)-2-[3-[2-(4-[2-[(4-[3-[3-amino-6-(2-hydroxyphenyl)pyridazin-4-yl]-3,8-diazabicyclo[3.2.1]octan-8-yl]pyridin-2-yl)oxy]ethyl]piperazin-1-yl)ethoxy]-1,2-oxazol-5-yl]-3-methylbutanoyl]-4-hydroxy-N-[[4-(4-methyl-1,3-thiazol-5-yl)phenyl]methyl]pyrrolidine-2-carboxamide] | < 2.5 nM | > 75%
Cc1ncsc1-c1ccc(CNC(=O)[C@@H]2C[C@@H](O)CN2C(=O)[C@H](c2cc(OCCN3CCN(CCCc4cc(N5C6CCC5CN(c5cc(-c7ccccc7O)nnc5N)C6)ccn4)CC3)no2)C(C)C)cc1 [compound 43, (2S,4R)-1-[(2S)-2-[3-(2-[4-[3-(4-[3-[3-amino-6-(2-hydroxyphenyl)pyridazin-4-yl]-3,8-diazabicyclo[3.2.1]octan-8-yl]pyridin-2-yl)propyl]piperazin-1-yl]ethoxy)-1,2-oxazol-5-yl]-3-methylbutanoyl]-4-hydroxy-N-[[4-(4-methyl-1,3-thiazol-5-yl)phenyl]methyl]pyrrolidine-2-carboxamide] |  | < 50%
Cc1ncsc1-c1ccc(CNC(=O)[C@@H]2C[C@@H](O)CN2C(=O)[C@@H](c2cc(OCCN3CCN(CCCc4cc(N5C6CCC5CN(c5cc(-c7ccccc7O)nnc5N)C6)ccn4)CC3)no2)C(C)C)cc1 [compound 44, (2S,4R)-1-[(2R)-2-[3-(2-[4-[3-(4-[3-[3-amino-6-(2-hydroxyphenyl)pyridazin-4-yl]-3,8-diazabicyclo[3.2.1]octan-8-yl]pyridin-2-yl)propyl]piperazin-1-yl]ethoxy)-1,2-oxazol-5-yl]-3-methylbutanoyl]-4-hydroxy-N-[[4-(4-methyl-1,3-thiazol-5-yl)phenyl]methyl]pyrrolidine-2-carboxamide] | 10 to 30 nM | > 75%
Cc1ncsc1-c1ccc(CNC(=O)[C@@H]2C[C@@H](O)CN2C(=O)[C@@H](NC(=O)CN2CCN(CCOCCOCCCc3cc(N4C5CCC4CN(c4cc(-c6ccccc6O)nnc4N)C5)ccn3)CC2)C(C)(C)C)cc1 [compound 45, (2S,4R)-1-[(2S)-2-[2-[4-(2-[2-[3-(4-[3-[3-amino-6-(2-hydroxyphenyl)pyridazin-4-yl]-3,8-diazabicyclo[3.2.1]octan-8-yl]pyridin-2-yl)propoxy]ethoxy]ethyl)piperazin-1-yl]acetamido]-3,3-dimethylbutanoyl]-4-hydroxy-N-[[4-(4-methyl-1,3-thiazol-5-yl)phenyl]methyl]pyrrolidine-2-carboxamide] | > 30 nM | > 75%
Cc1ncsc1-c1ccc([C@H](C)NC(=O)[C@@H]2C[C@@H](O)CN2C(=O)[C@H](c2cc(OCCN3CCN(CCOc4cc(N5C6CCC5CN(c5cc(-c7ccccc7O)nnc5N)C6)ccn4)CC3)no2)C(C)C)cc1 [compound 46, (2S,4R)-1-[(2S)-2-[3-[2-(4-[2-[(4-[3-[3-amino-6-(2-hydroxyphenyl)pyridazin-4-yl]-3,8-diazabicyclo[3.2.1]octan-8-yl]pyridin-2-yl)oxy]ethyl]piperazin-1-yl)ethoxy]-1,2-oxazol-5-yl]-3-methylbutanoyl]-4-hydroxy-N-[(1S)-1-[4-(4-methyl-1,3-thiazol-5-yl)phenyl]ethyl]pyrrolidine-2-carboxamide] | > 30 nM | 50 to 75%
Cc1ncsc1-c1ccc([C@H](C)NC(=O)[C@@H]2C[C@@H](O)CN2C(=O)[C@@H](c2cc(OCCN3CCN(CCOc4cc(N5C6CCC5CN(c5cc(-c7ccccc7O)nnc5N)C6)ccn4)CC3)no2)C(C)C)cc1 [compound 47] | < 2.5 nM | > 75%
Cc1ncsc1-c1ccc(CNC(=O)[C@@H]2C[C@@H](O)CN2C(=O)[C@@H](NC(=O)CN2CCN(c3ccc(CCOCCCc4cc(N5C6CCC5CN(c5cc(-c7ccccc7O)nnc5N)C6)ccn4)cn3)CC2)C(C)(C)C)cc1 [compound 48, (2S,4R)-1-((2S)-2-(2-(4-(5-(2-(3-(4-(3-(3-amino-6-(2-hydroxyphenyl)pyridazin-4-yl)-3,8-diazabicyclo[3.2.1]octan-8-yl)pyridin-2-yl)propoxy)ethyl)pyridin-2-yl)piperazin-1-yl)acetamido)-3,3-dimethylbutanoyl)-4-hydroxy-N-(4-(4-methylthiazol-5-yl)benzyl)pyrrolidine-2-carboxamide] | > 30 nM | > 75%
Cc1ncsc1-c1ccc([C@H](C)NC(=O)[C@@H]2C[C@@H](O)CN2C(=O)[C@@H](NC(=O)COC2CN(CCN3CCN(CCCc4cc(N5C6CCC5CN(c5cc(-c7ccccc7O)nnc5N)C6)ccn4)CC3)C2)C(C)(C)C)cc1 [compound 49, (2S,4R)-1-((2S)-2-(2-((1-(2-(4-(3-(4-(3-(3-amino-6-(2-hydroxyphenyl)pyridazin-4-yl)-3,8-diazabicyclo[3.2.1]octan-8-yl)pyridin-2-yl)propyl)piperazin-1-yl)ethyl)azetidin-3-yl)oxy)acetamido)-3,3-dimethylbutanoyl)-4-hydroxy-N-((S)-1-(4-(4-methylthiazol-5-yl)phenyl)ethyl)pyrrolidine-2-carboxamide] | > 30 nM | 50 to 75%
Cc1ncsc1-c1ccc([C@H](C)NC(=O)[C@@H]2C[C@@H](O)CN2C(=O)[C@@H](NC(=O)Cc2ccc(N3CCN(CCOCCCc4cc(N5C6CCC5CN(c5cc(-c7ccccc7O)nnc5N)C6)ccn4)CC3)nc2)C(C)(C)C)cc1 [compound 50, (2S,4R)-1-[(2S)-2-[2-[6-(4-[2-[3-(4-[3-[3-amino-6-(2-hydroxyphenyl)pyridazin-4-yl]-3,8-diazabicyclo[3.2.1]octan-8-yl]pyridin-2-yl)propoxy]ethyl]piperazin-1-yl)pyridin-3-yl]acetamido]-3,3-dimethylbutanoyl]-4-hydroxy-N-[(1S)-1-[4-(4-methyl-1,3-thiazol-5-yl)phenyl]ethyl]pyrrolidine-2-carboxamide] | 10 to 30 nM | > 75%
Cc1ncsc1-c1ccc([C@H](C)NC(=O)[C@@H]2C[C@@H](O)CN2C(=O)[C@@H](NC(=O)COCCOCCOCCCCN2CCOC3(CCN(c4cc(-c5ccccc5O)nnc4N)CC3)C2)C(C)(C)C)cc1 [compound 51, (2S,4R)-1-[(2S)-2-(2-[2-[2-(4-[9-[3-amino-6-(2-hydroxyphenyl)pyridazin-4-yl]-1-oxa-4,9-diazaspiro[5.5]undecan-4-yl]butoxy)ethoxy]ethoxy]acetamido)-3,3-dimethylbutanoyl]-4-hydroxy-N-[(1S)-1-[4-(4-methyl-1,3-thiazol-5-yl)phenyl]ethyl]pyrrolidine-2-carboxamide] | 10 to 30 nM | > 75%
Cc1ncsc1-c1ccc(CNC(=O)[C@@H]2C[C@@H](O)CN2C(=O)[C@@H](NC(=O)COCCOCCOCCOC/C=C/c2cc(N3C4CCC3CN(c3cc(-c5ccccc5O)nnc3N)C4)ccn2)C(C)(C)C)cc1 [compound 52, (2S,4R)-1-((S,E)-18-(4-(3-(3-amino-6-(2-hydroxyphenyl)pyridazin-4-yl)-3,8-diaza-bicyclo[3.2.1]octan-8-yl)pyridin-2-yl)-2-tert-butyl-4-oxo-6,9,12,15-tetraoxa-3-azaoctadec-17-en-1-oyl)-4-hydroxy-N-(4-(4-methylthiazol-5-yl)benzyl)pyrrolidine-2-carboxamide] | 10 to 30 nM | > 75%
